These results are taken from ChEMBL document CHEMBL1143035, “Synthesis, antifungal and haemolytic activity of a series of bis(pyridinium)alkanes” (Bioorg Med Chem, 2007).

≈ marks a conversion by molar mass, not a printed value. Where a name gives a salt, the structure may show the parent alone. Bounds are passed on as bounds.

The test system of one data set is Cryptococcus neoformans. As to the kind of experiment: Antifungal activity against Cryptococcus neoformans ATCC 90112. It counts as functional.
Another data set deals with Candida albicans. As to the kind of experiment: Antifungal activity against Candida albicans ATCC 10231. It is filed as functional.
Data set [1] in a line: Cytotoxicity against human erythrocytes assessed as hemolytic activity at 500 uM. It is filed as cell-based. Particulars: erythrocyte; call rule not given here.
The target of data set [2] is T1, Phospholipase B (Cryptococcus neoformans) (UniProt Q9P8P2).
T1 sequence (whole entry): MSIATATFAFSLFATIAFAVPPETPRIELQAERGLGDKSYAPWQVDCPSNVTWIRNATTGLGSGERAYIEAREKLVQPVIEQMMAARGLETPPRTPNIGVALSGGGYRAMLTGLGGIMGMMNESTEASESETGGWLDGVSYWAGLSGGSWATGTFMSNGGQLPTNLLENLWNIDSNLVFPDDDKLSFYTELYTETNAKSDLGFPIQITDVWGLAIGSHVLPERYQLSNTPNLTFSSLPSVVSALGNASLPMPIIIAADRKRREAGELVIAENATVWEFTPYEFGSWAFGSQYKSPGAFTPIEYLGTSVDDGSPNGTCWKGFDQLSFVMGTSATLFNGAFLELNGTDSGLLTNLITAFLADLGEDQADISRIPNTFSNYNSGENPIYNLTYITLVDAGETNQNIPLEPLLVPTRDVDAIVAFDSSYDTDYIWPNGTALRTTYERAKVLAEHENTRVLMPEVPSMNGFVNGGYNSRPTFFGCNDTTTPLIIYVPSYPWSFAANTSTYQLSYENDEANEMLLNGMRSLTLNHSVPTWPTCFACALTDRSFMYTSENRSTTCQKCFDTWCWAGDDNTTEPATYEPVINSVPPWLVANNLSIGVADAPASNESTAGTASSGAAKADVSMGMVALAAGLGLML
As to the kind of experiment: Inhibition of phospholipase B activity of PLB1 in Cryptococcus neoformans var. grubii H99 assessed as loss of 1,2-di[1-14C]palmitoyl phosphatidylcholine at 250 uM.

A further data set deals with Aspergillus fumigatus. As to the kind of experiment: Antifungal activity against Aspergillus fumigatus ATCC 204 305. It counts as functional.
The next data set concerns Aspergillus terreus. As to the kind of experiment: Antifungal activity against Aspergillus terreus 03-232-378. It is filed as functional.
A further data set has as its system Aspergillus flavus. Briefly: Antifungal activity against Aspergillus flavus ATCC 204 304. It is filed as functional.
For a further data set, the system named is Scedosporium boydii. Briefly: Antifungal activity against Scedosporium apiospermum 1-003-056. It counts as functional.
The next data set has as its system Lomentospora prolificans. As to the kind of experiment: Antifungal activity against Scedosporium prolificans 1-003-040. It counts as functional.
For another data set, the system named is Fusarium solani. As to the kind of experiment: Antifungal activity against Fusarium solani 04-132-4207. It is filed as functional.
Data set [3] deals with T1, Phospholipase B (Cryptococcus neoformans). Briefly: Inhibition of lysophospholipase activity of PLB1 in Cryptococcus neoformans var. grubii H99 assessed as loss of 1-[14C]palmitoyl lyso phosphatidylcholine at 250 uM.
Data set [4] has the same target. Briefly: Inhibition of lysophospholipase transacylase activity of PLB1 in Cryptococcus neoformans var. grubii H99 assessed as rate of formation of 1-[14C]palmitoyl lyso phosphatidylcholine at 250 uM.
The target is the same in data set [5]. Briefly: Inhibition of phospholipase B activity of PLB1 in Cryptococcus neoformans var. grubii H99 assessed as loss of 1,2-di[1-14C]palmitoyl phosphatidylcholine at 25 uM.
Data set [6] shares this target. As to the kind of experiment: Inhibition of lysophospholipase activity of PLB1 in Cryptococcus neoformans var. grubii H99 assessed as loss of 1-[14C]palmitoyl lyso phosphatidylcholine at 25 uM.
The target is the same in data set [7]. As to the kind of experiment: Inhibition of lysophospholipase transacylase activity of PLB1 in Cryptococcus neoformans var. grubii H99 assessed as rate of formation of 1-[14C]palmitoyl lyso phosphatidylcholine at 25 uM.
For data set [8] the target is unchanged. Briefly: Inhibition of phospholipase B activity of PLB1 in Cryptococcus neoformans var. grubii H99 assessed as loss of 1,2-di[1-14C]palmitoyl phosphatidylcholine at 2.5 uM.
Data set [9] has the same target. Briefly: Inhibition of lysophospholipase activity of PLB1 in Cryptococcus neoformans var. grubii H99 assessed as loss of 1-[14C]palmitoyl lyso phosphatidylcholine at 2.5 uM.
The target is the same in data set [10]. Briefly: Inhibition of lysophospholipase transacylase activity of PLB1 in Cryptococcus neoformans var. grubii H99 assessed as rate of formation of 1-[14C]palmitoyl lyso phosphatidylcholine at 2.5 uM.
For data set [11] the target is unchanged. As to the kind of experiment: Inhibition of phospholipase B activity of PLB1 in Cryptococcus neoformans var. grubii H99 assessed as loss of 1,2-di[1-14C]palmitoyl phosphatidylcholine at 0.25 uM.
Data set [12] shares this target. Briefly: Inhibition of lysophospholipase activity of PLB1 in Cryptococcus neoformans var. grubii H99 assessed as loss of 1-[14C]palmitoyl lyso phosphatidylcholine at 0.25 uM.
For data set [13] the target is unchanged. As to the kind of experiment: Inhibition of lysophospholipase transacylase activity of PLB1 in Cryptococcus neoformans var. grubii H99 assessed as rate of formation of 1-[14C]palmitoyl lyso phosphatidylcholine at 0.25 uM.
A short description of data set [14]: Cytotoxicity against human erythrocytes assessed as hemolytic activity at 50 uM. It is filed as cell-based, Erythrocyte. Particulars: read-out: Activity.
Data set [15] in a line: Cytotoxicity against human erythrocytes assessed as hemolytic activity at 5 uM. It counts as cell-based, Erythrocyte. To be noted: read-out: Activity.

Regarding `[Br-].[Br-].c1cc[n+](CCCCCCCCCC[n+]2ccccc2)cc1`, the MIC (as a rule, the lowest concentration that inhibits growth of the organism) in the data set on Cryptococcus neoformans stood at 350 µM; in the data set with Candida albicans, 88 µM. Moreover, in data set [1], the Activity result was “Not Active”.

Take `[Br-].[Br-].c1cc[n+](CCCCCCCCCCCC[n+]2ccccc2)cc1`: the MIC amounted to 88 µM against Cryptococcus neoformans and 44 µM against Candida albicans. In data set [1], the Activity entry is “Not Active”.

With `Nc1cc[n+](CCCCCCCCCCCCCCCC[n+]2ccc(N)cc2)cc1.[Br-].[Br-]`, the inhibition (commonly the change of the read-out against control, counted positive when it falls) in data set [2] was found to be 40%. Further, the MIC with Cryptococcus neoformans and in the data set with Candida albicans was 1.4 µM in each case. In addition, in data set [1], the Activity result is given as “Not Active”.

Consider `CNc1cc[n+](CCCCCCCCCCCC[n+]2ccc(NC)cc2)cc1.[Br-].[Br-]`, for which the minimum inhibitory concentration (MIC) with Cryptococcus neoformans was 2.8 µM; with Candida albicans, 1.4 µM; in the data set on Aspergillus fumigatus it was 44 µM; against Aspergillus terreus, 11 µM; against Aspergillus flavus, 44 µM; in the data set with Scedosporium boydii it was 2.8 µM. The MIC in the data set on Lomentospora prolificans was found to be 2.8 µM; in the data set on Fusarium solani, 44 µM. Also, the Activity result in data set [1] was “Not Active”.

In the case of `Br.Br.N=c1ccn(CCCCCCCCCCCCn2ccc(=N)cc2)cc1`, in data set [2], the inhibition amounted to 40%. The minimum inhibitory concentration (MIC) with Cryptococcus neoformans was 5.5 µM; with Candida albicans, 1.4 µM. The Activity result in [1] was “Not Active”.

Consider `C[C@@H]1[C@H](O)[C@@H](C)/C=C/C=C/C=C/C=C/C=C/C=C/C=C/[C@H](O[C@@H]2O[C@H](C)[C@@H](O)[C@H](N)[C@@H]2O)C[C@@H]2O[C@](O)(C[C@@H](O)C[C@@H](O)[C@H](O)CC[C@@H](O)C[C@@H](O)CC(=O)O[C@H]1C)C[C@H](O)[C@H]2C(=O)O` [AMPHOTERICIN B], for which the MIC came to 0.55 µM (≈ 0.508 µg/mL) with Cryptococcus neoformans; 0.55 µM (≈ 0.508 µg/mL) against Candida albicans; 1.1 µM (≈ 1.02 µg/mL) in the data set with Aspergillus terreus; 0.55 µM (≈ 0.508 µg/mL) against Aspergillus flavus; 0.55 µM (≈ 0.508 µg/mL) with Scedosporium boydii; 4.4 µM (≈ 4.07 µg/mL) in the data set on Lomentospora prolificans. In the data set on Fusarium solani, this molecule registered an MIC of 0.28 µM (≈ 0.259 µg/mL).

`Cc1cc(N)c2ccccc2[n+]1CCCCCCCCCC[n+]1c(C)cc(N)c2ccccc21.[Cl-].[Cl-]` [DEQUALINIUM CHLORIDE]: the minimum inhibitory concentration (MIC) was found to be 11 µM against Cryptococcus neoformans and 5.5 µM in the data set with Candida albicans. Moreover, the Activity result in data set [1] is listed as “Not Active”.

Regarding `CN(C)c1cc[n+](CCCCCCCCCCCC[n+]2ccc(N(C)C)cc2)cc1.[Br-].[Br-]`, the inhibition in data set [2] was 40%. Also, the minimum inhibitory concentration (MIC) against Cryptococcus neoformans and in the data set with Candida albicans was 2.8 µM throughout. For the same molecule, the Activity result in [1] is given as “Not Active”.

Take `Br.Br.N=c1ccn(CCCCCCCCCCn2ccc(=N)cc2)cc1`: the MIC against Cryptococcus neoformans was 22 µM; in the data set on Candida albicans, 2.8 µM. Besides, in [1], the Activity entry is listed as “Not Active”.

`[Br-].[Br-].c1cc[n+](CCCCCCCC[n+]2ccccc2)cc1`: the MIC with Cryptococcus neoformans was above 350 µM; with Candida albicans it was 175 µM. Moreover, the Activity entry in data set [1] is on record as “Not Active”.

For `CCCCCCCCN=c1ccn(CCCCCCCCCCn2ccc(=NCCCCCCCC)cc2)cc1` [OCTENIDINE HYDROCHLORIDE], the inhibition in data set [2] was determined as 100%; in data set [3], 97%; in data set [4], 97%; in data set [5] it was 80%; in data set [6], 46%; in data set [7], 43%. The inhibition in data set [8] was 50%; in data set [9], 16%; in [10], 12%; in data set [11], 0%; in data set [12] it was 0%; in data set [13] it was 0%. Also, the MIC in the data set with Cryptococcus neoformans stood at 0.7 µM; in the data set with Candida albicans it was 1.4 µM. For the same molecule, the hemolysis at 50 µM in data set [14] turned out to be 43%. The hemolysis at 5 µM in data set [15] turned out to be 9%.

With `[Br-].[Br-].c1ccc2c(c1)ccc[n+]2CCCCCCCCCC[n+]1cccc2ccccc21`, the MIC with Cryptococcus neoformans and in the data set with Candida albicans was 88 µM in each case. Besides, the Activity entry in data set [1] is listed as “Not Active”.

Take `[Br-].[Br-].c1cc[n+](CCCCCC[n+]2ccccc2)cc1`: the minimum inhibitory concentration (MIC) against Cryptococcus neoformans was above 350 µM; against Candida albicans, 175 µM. The Activity result in data set [1] is listed as “Not Active”.

For `Nc1cccc[n+]1CCCCCCCCCCCC[n+]1ccccc1N.[Br-].[Br-]`, the inhibition in data set [2] was 40%. Also, the MIC in the data set with Cryptococcus neoformans and against Candida albicans was 5.5 µM each time. The Activity entry in [1] is “Not Active”.

For `[Cl-].[Cl-].c1ccc2c(c1)ccc[n+]2CCCCCCCCCCCC[n+]1cccc2ccccc21`, the minimal inhibitory concentration (MIC) was found to be 11 µM in the data set with Cryptococcus neoformans and 22 µM against Candida albicans. For the same molecule, the Activity result in data set [1] is “Not Active”.

Regarding `Cc1cc(N)c2ccccc2[n+]1CCCCCCCC[n+]1c(C)cc(N)c2ccccc21.[Br-].[Br-]`, the MIC with Cryptococcus neoformans and against Candida albicans was 5.5 µM each time. Besides, in [1], the Activity result was “Not Active”.

In the case of `Cc1cc(N)c2ccccc2[n+]1CCCCCCCCCCCC[n+]1c(C)cc(N)c2ccccc21.[Cl-].[Cl-]`, the minimum inhibitory concentration (MIC) in the data set on Cryptococcus neoformans was determined as 88 µM; in the data set with Candida albicans, 22 µM. Moreover, in [1], the Activity result is reported as “Not Active”.
